The record followed here is PubChem BioAssay AID179 (DTP/NCI, 2004).

This assay relates to CEM cells HIV-1 protection, formazan growth assay. Description: NCI AIDS Antiviral Assay. The note with it: for IC50: measured here: growth of uninfected CEM cells. Summed up: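 Human CEM cells, uninfected and HIV-1-infected, received five drug concentrations, and growth was read by soluble formazan assay. Compounds giving at least 50% protection were retested; reproducible 100% protection defined confirmed active.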

Calls of active or inactive are those of the source.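 Rule for the calls: active = compounds giving half or more protection of infected cells from virus-caused growth loss, again on retest; inactive = the rest.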

Take `CC(=O)N[C@H]1CC2(C=C(Br)C(=O)C(Br)=C2)OC1=O`: the EC50 is > 33.1 µM and the IC50 is 5.13 µM. In the same order, the values of `CCOC(=O)C(=CNC(=S)Nc1ccc(OCC)cc1)C(=O)OCC` are > 200 µM and 112 µM. On the same counts, the results for `CCOC(=O)c1ccc(CSc2ccccc2)cc1` are > 26.3 µM and > 26.3 µM. For the molecule `O=C1C=C/C(=C/[C@H]2SSC=C[C@]23C=CC(=O)C3)C1`, the EC50 is > 200 µM and the IC50 amounted to 2.63 µM. Turning to `C=CCC(C=C=CCN(C)C)CO` (stereo unspecified), the EC50 was > 1200 µM and the IC50 came out at 631 µM. In the same order, the values of `COc1ccccc1N1C(=O)/C(=C\c2cccc(Oc3ccccc3)c2)SC1c1ccccc1` (stereo unspecified) are > 200 µM and 52.5 µM. On the same counts, the results for `COc1ccc(-c2c(C)c(C(=O)O)nc(-c3ccc4c(O)c(OC)c5c(c4n3)=NC(C)(C)N=5)c2N)c(O)c1OC` are > 457 µM and 2.4 µM.

`O=[N+]([O-])/C(C(Cl)=C(Cl)Cl)=C(/Nc1ccccc1)Sc1ccccc1`: the EC50 is > 200 µM and the IC50 is 23.4 µM.

As for `CCOC(=O)C(=O)Nc1nc2c(OCC)cccc2s1`, the outcome was inactive.

As for `CCOc1ccc(O)cc1[P+](c1ccccc1)(c1ccccc1)c1ccccc1`, the outcome was inactive. Still for that read-out and setting: next, `CC12CC3(C)CC(C)(C1)CC(C(NC(C)(C)C)C(=O)O)(C2)C3` (stereo unspecified): “inactive”. With `O=[N+]([O-])c1ccc(-c2ccc(-c3csc(Nc4ccccn4)n3)o2)cc1`, the EC50 is > 5.5 µM and the IC50 is > 5.5 µM. Regarding `O=C1CNc2cc(N3CCCCC3)ccc2N1`, the EC50 was > 200 µM and the IC50 is 66.1 µM.

In the case of `CCCCCCCCCCCCC(=O)N1CCOCC1`, the EC50 was > 200 µM and the IC50 is 52.5 µM. For the molecule `CC/C(Cl)=N\OC(=O)Nc1ccccc1OC(F)(F)F`, the EC50 was > 20 µM and the IC50 was 3.16 µM. In the same order, the values of `CC(C)(C)N1COCO[C@H]2CCC[C@@H]21` are > 525 µM and 186 µM. In the same order, the values of `CCOC(=O)CNc1c(OCc2ccccc2)c(=O)c1=O` are > 200 µM and > 200 µM.

Take `CC(=O)N(CC1CCCN(C)C1)C1C2CC3CC(C2)CC1C3` (stereo unspecified): the EC50 was > 117 µM and the IC50 was 46.8 µM. In the same order, the values of `OC1(c2ccc(Cl)cc2)c2ccccc2-c2nc3ccccc3n21` (stereo unspecified) are > 200 µM and 174 µM.

`COC(=O)c1c(CC(=O)O)oc2c1CCCC2`: the result was inactive. With `COc1cc(NCC(C#N)C#N)ccc1N=Nc1ccc([N+](=O)[O-])cc1`, the EC50 was > 38.9 µM and the IC50 is > 38.9 µM. As for `CN(C)/C(N)=N/C(N)=Nc1cccc(Cl)c1`, the EC50 was > 200 µM and the IC50 turned out to be 83.2 µM.

Consider `COC(=O)CCCc1c(-c2[nH]c3ccccc3c2CCCC(=O)OC)[nH]c2ccccc12`, for which the EC50 was > 200 µM and the IC50 was > 200 µM.

Regarding `Cc1ccc(-c2c(C#N)c(-c3ccc(N(C)C)cc3)c(C#N)c(=O)n2NS(=O)(=O)c2ccccc2)cc1`, the EC50 is > 200 µM and the IC50 turned out to be 18.2 µM. On the same counts, the results for `O=C(CNC1=NCCN1)Nc1ccc(NC(=O)c2ccc(C(=O)Nc3ccc(NC(=O)CNC4=NCCN4)cc3)cc2)cc1` are 24 µM and > 200 µM.

Regarding `CC(C)c1cc(=O)oc2c3c(ccc12)OC(C)(C)[C@H](OC(=O)C12CCC(C)(C(=O)O1)C2(C)C)[C@@H]3OC(=O)C12CCC(C)(C(=O)O1)C2(C)C` (stereo partly specified), the EC50 is 0.324 µM and the IC50 was 33.9 µM. In the same order, the values of `O=C(N/C(=C\c1ccc([N+](=O)[O-])cc1)c1nc2ccccc2[nH]1)c1ccccc1` are > 35.5 µM and > 35.5 µM.

Regarding `Cc1c(-c2ccccc2)c(-c2ccc(OCCN(C)C)cc2)n2ccccc12`, the EC50 is > 200 µM and the IC50 was found to be 10 µM. On the same counts, the results for `CC1CCCC(C(O)CC2CC(=O)NC(=O)C2)C1O` (stereo unspecified) are > 200 µM and > 200 µM.

In the case of `CCOC(=O)COc1ccc(/C=C/C(=O)c2ccc(OC)cc2)cc1`, the EC50 was > 200 µM and the IC50 was 11.2 µM.

`O=[N+]([O-])c1ccc(C2SCc3nc4ccccc4n32)cc1` (stereo unspecified): the EC50 is > 55 µM and the IC50 stood at 33.1 µM. In the same order, the values of `COC(=O)c1sc2c(=O)c(C(=O)OC)c(C(=O)OC)sc2c(=O)c1C(=O)OC` are > 151 µM and 12 µM. In the same order, the values of `Nc1cc2cccc[n+]2c2cc(Cl)ccc12` are > 20 µM and 1.86 µM. As for `Cc1cc2c(cc1Cl)SC(NNC(=O)c1ccncc1)=NS2(=O)=O`, the EC50 is > 200 µM and the IC50 is > 200 µM. In the case of `COC(=O)C1=C(SC)SC2(C(=O)OC)C3C=C(C)C4C(N13)C42C(=O)OC` (stereo unspecified), the EC50 was > 3.63 µM and the IC50 is > 3.63 µM. Take `CC(C)(C)C1CCC2c3c([nH]c4ccccc34)C3C(=O)N(c4cccc(Cl)c4)C(=O)C3C2C1` (stereo unspecified): the EC50 is > 200 µM and the IC50 was 11 µM. In the same order, the values of `CC(=O)Nc1ccc2c(c1)Cc1cc(N(CCO)CCO)ccc1-2` are > 200 µM and 74.1 µM.

For `O=C(Cc1nc2ccccc2c(=O)n1-c1c(Cl)cccc1Cl)c1ccncc1`, the EC50 is > 12.6 µM and the IC50 was > 12.6 µM.

As to `O=C1CCN2CCCC1C2` (stereo unspecified), the EC50 is > 1410 µM and the IC50 worked out at 1290 µM.

With `Cc1cc(N(C)C)c(C=O)c(C)c1C=O`, the EC50 is > 1230 µM and the IC50 was 93.3 µM. On the same counts, the results for `CC(C)OP(=O)(CP(=O)(OC(C)C)OC(C)C)CP(=O)(OC(C)C)OC(C)C` are > 537 µM and 93.3 µM.

On to `COc1ccc2nc3cc(Cl)ccc3c(Nc3ccc(C(=O)O)c(O)c3)c2c1`, for which the EC50 is > 60.3 µM and the IC50 is > 60.3 µM. On to `N#CC(C#N)=Cc1cccc(C#N)c1`, for which the EC50 was > 141 µM and the IC50 came out at 2.45 µM. Consider `COc1ccc2c(c1)N(S(=O)(=O)c1ccc(C)cc1)CC1=C2CCP1(C)=O` (stereo unspecified), for which the result was inactive. As to `O=C1C=C(Nc2ccc(Cl)cc2Cl)C(=O)C=C1Nc1ccc(Cl)cc1Cl`, the EC50 is > 200 µM and the IC50 was > 200 µM.

Regarding `CCN(CC)CCOc1ccc(/C(C#N)=C/c2cccc3ccccc23)cc1`, the EC50 was > 200 µM and the IC50 turned out to be 1.78 µM. On the same counts, the results for `O=Cc1ccccc1OCCC[P+](c1ccccc1)(c1ccccc1)c1ccccc1` are > 200 µM and 2.51 µM. Consider `O=C1OC(=O)C2=C1CCc1ccccc12`, for which the outcome was inactive. Still for that read-out and setting: next, `CC(=O)OCC1OC(Nc2[nH]c(=O)n(C)c(=O)c2-c2csc(N)n2)C(OC(C)=O)C(OC(C)=O)C1OC(C)=O` (stereo unspecified): “inactive”. `CC1=C2CN(C(=O)OCC(C)C)CCC2C2=C(C(=O)c3ccccc3C2=O)C1C` (stereo unspecified): the EC50 is > 100 µM and the IC50 was > 100 µM. For the molecule `Cc1cc[n+](CC(=O)CC([O-])(C(F)(F)F)C(F)(F)F)cc1`, the EC50 was > 200 µM and the IC50 is > 200 µM.

`CC1=CC2CC(C)=C(CC[C@]3(C)CC[C@H]([C@@H](C)C(=O)O)OO3)C(C)(C)C2CC1` (stereo partly specified): the result was inactive.

`CCc1cc2c(cc1C(=O)CCC(=O)O)CC1(C2)Cc2cc(CC)c(C(=O)CCC(=O)O)cc2C1`: the EC50 is > 200 µM and the IC50 came to 107 µM. With `O=c1[nH]c(=O)n(C2CC(O)C(CO)O2)cc1COCC(F)(F)F` (stereo unspecified), the EC50 is > 251 µM and the IC50 was > 251 µM.

Take `O=S(=O)(N/N=C/c1ccc(Cl)cc1Cl)c1ccccc1`: the outcome was inactive. On to `CCOC(=O)c1nc2cc(C(F)(F)F)ccc2nc1Nc1ccc(OC)cc1`, for which the EC50 is > 126 µM and the IC50 was > 126 µM.

For `CC1(C)OP(=O)(c2ccccc2)C=C1Br` (stereo unspecified), the EC50 was > 200 µM and the IC50 was > 200 µM. As to `O=c1[nH]c2c(O)cccc2c2cc3c(c(O)c12)OCO3`, the result was inactive. On to `Cc1cccc(C)c1NC(=O)CCc1n[nH]c(=S)o1`, for which the EC50 is > 468 µM and the IC50 is > 468 µM. For the molecule `C=CCNC(=S)N1c2ccccc2NC(=O)CC1C` (stereo unspecified), the EC50 was > 661 µM and the IC50 was > 661 µM.

With `O=C1C(C(O)(C(F)(F)Cl)C(F)(F)Cl)CCC1C(O)(C(F)(F)Cl)C(F)(F)Cl` (stereo unspecified), the EC50 was > 200 µM and the IC50 was determined as 4.37 µM. `Cc1csc(N2C(=O)c3cccc4cccc(c34)C2=O)n1`: the EC50 was > 200 µM and the IC50 turned out to be 64.6 µM. On the same counts, the results for `CCOC(=O)c1[nH]n(-c2ccccc2)c(=O)c1/C=N/C(=S)N=Nc1c(O)[nH]c2ccccc12` are > 200 µM and > 100 µM.

Consider `C=C[C@@H]1c2ccccc2C=C[C@]1(CCC1(C)OCCO1)C1=NC(COC)[C@H](c2ccccc2)O1` (stereo partly specified), for which the EC50 is > 8.13 µM and the IC50 is > 8.13 µM. For the molecule `CC(C)CC(NC(=O)OCC[P+](c1ccccc1)(c1ccccc1)c1ccccc1)C(=O)O` (stereo unspecified), the EC50 was > 200 µM and the IC50 stood at 9.12 µM. On the same counts, the results for `N#Cc1c(Cl)c2ccccc2n2c1nc1ccccc12` are > 151 µM and 8.32 µM. On the same counts, the results for `N=C(N)SCc1cccc2c(=O)cc(-c3ccccc3)oc12` are > 646 µM and 5.62 µM.

Regarding `O=c1[nH]c(Cc2ccccc2)nc2c1sc1nc3ccccc3n12`, the EC50 is > 200 µM and the IC50 was > 200 µM. With `CCOC(=O)C1=NC(c2ccccc2)(c2ccccc2)OC1=C(Cl)Cl`, the EC50 is > 1 µM and the IC50 is > 1 µM. With `CCOC(=O)C(NC(=O)CC)(Nc1ccc(S(=O)(=O)Nc2onc(C)c2C)cc1)C(F)(F)F` (stereo unspecified), the EC50 was > 200 µM and the IC50 is > 200 µM. `Nc1nc(Cl)c2ncn(C3C=CC(CO)CC3)c2n1` (stereo unspecified): the EC50 was > 200 µM and the IC50 was 97.7 µM. For `CCCNC(=S)/N=C/c1c(O)cc(C)oc1=O`, the EC50 was > 200 µM and the IC50 is > 200 µM. As for `N#Cc1ncc(C[P+](c2ccccc2)(c2ccccc2)c2ccccc2)nc1N`, the EC50 was > 200 µM and the IC50 was found to be 170 µM.

One may read the EC50 as the concentration that produces a half-maximal response. As usually defined, the IC50 is the concentration needed to halve the response being measured.
